Measured values taken from patent US20250304576A1 (Cancer Research Technology Limited, priority 2022, published 2025).

Legend:
Recombinant IKKβ = biological target: T1, Recombinant IKKβ (Homo sapiens, UniProt O14920); assay: DELFIA IKKβ kinase assay (apparent Ki, Cheng-Prusoff); format: biochemical; settings: DELFIA assay (first line of an example)
T1 construct: purchased Millipore, Dundee, UK
T1 sequence (O14920 1-756): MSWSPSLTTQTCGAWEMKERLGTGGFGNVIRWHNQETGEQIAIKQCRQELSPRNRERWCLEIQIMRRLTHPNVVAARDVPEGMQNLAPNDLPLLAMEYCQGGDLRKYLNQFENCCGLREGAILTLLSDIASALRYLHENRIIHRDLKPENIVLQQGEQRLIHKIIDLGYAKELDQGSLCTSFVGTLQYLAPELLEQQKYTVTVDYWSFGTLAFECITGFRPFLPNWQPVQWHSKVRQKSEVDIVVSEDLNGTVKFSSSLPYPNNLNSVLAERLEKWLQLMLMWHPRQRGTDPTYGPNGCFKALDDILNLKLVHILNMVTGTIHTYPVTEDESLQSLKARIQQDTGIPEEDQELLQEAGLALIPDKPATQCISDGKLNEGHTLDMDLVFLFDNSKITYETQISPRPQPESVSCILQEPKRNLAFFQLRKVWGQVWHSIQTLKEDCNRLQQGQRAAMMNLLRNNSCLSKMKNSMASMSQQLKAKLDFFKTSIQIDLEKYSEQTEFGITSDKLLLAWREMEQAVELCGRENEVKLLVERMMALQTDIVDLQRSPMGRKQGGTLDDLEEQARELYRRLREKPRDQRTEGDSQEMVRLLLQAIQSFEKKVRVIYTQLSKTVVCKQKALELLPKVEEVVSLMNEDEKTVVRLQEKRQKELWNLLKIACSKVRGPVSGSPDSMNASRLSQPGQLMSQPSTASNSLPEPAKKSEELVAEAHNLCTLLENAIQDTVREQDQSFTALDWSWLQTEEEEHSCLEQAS
In short: (§1)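 DELFIA time-resolved fluorescence (ex 340/em 615 nm) quantified phosphorylation of a biotinylated IκB-α Ser32 peptide (0.375 μM) by 37 nM recombinant IKKα or IKKβ. Reactions used 40 μM ATP, Tris pH 7.5 buffer with MgCl2, DTT and BSA, 60 min at 30° C. Cheng-Prusoff equation gave apparent Ki.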

Recombinant IKKα = biological target: T2, Recombinant IKKα (Homo sapiens, UniProt O15111); assay: DELFIA IKKα kinase assay (apparent Ki, Cheng-Prusoff); format: biochemical; settings: DELFIA assay (first line of an example)
T2 construct: purchased Millipore, Dundee, UK
T2 sequence (O15111 1-745): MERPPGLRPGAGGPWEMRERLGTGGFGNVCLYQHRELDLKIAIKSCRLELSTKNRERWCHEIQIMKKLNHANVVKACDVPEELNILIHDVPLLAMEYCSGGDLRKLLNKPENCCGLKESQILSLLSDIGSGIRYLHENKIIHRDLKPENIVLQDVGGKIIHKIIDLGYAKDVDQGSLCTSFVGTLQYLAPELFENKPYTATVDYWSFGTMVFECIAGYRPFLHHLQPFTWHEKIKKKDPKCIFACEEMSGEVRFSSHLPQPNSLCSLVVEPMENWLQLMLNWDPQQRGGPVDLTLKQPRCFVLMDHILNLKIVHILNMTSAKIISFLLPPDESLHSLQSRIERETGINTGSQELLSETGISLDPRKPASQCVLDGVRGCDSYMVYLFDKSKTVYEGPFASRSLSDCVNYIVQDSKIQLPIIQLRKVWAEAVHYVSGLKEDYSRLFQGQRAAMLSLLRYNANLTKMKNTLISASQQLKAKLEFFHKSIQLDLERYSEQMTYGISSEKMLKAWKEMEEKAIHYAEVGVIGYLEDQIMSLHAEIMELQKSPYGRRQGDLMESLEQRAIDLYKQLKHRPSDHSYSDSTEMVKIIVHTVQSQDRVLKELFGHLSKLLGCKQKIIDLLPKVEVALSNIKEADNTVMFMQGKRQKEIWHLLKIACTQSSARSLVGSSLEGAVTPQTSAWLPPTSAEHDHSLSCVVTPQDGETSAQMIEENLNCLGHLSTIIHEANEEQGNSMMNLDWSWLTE
In short: as §1

Row | Ki (Recombinant IKKβ) | Ki (Recombinant IKKα) | SMILES
1 | 0.0185 µM | 0.005 µM | Cn1nnc(Nc2cc(-c3cc(C#CC(C)(C)C)c4[nH]nc(N)c4c3)ccn2)n1 [Example 320, 7-(3,3-Dimethylbut-1-yn-1-yl)-5-(2-((2-methyl-2H-tetrazol-5-yl)amino)pyridin-4-yl)-1H-indazol-3-amine]
2 | 4.58 µM | 0.202 µM | CC(C)(C)C#Cc1cc(-c2ccnc(Nc3ncccn3)c2)cc2c(N)n[nH]c12 [Example 321, 7-(3,3-Dimethylbut-1-yn-1-yl)-5-(2-(pyrimidin-2-ylamino)pyridin-4-yl)-1H-indazol-3-amine]
3 | 3.13 µM | 0.045 µM | CC(C)(C)C#Cc1cc(-c2ccnc(NC3CCOC3)c2)cc2c(N)n[nH]c12 (stereo not shown) [Example 322, 7-(3,3-Dimethylbut-1-yn-1-yl)-5-(2-((tetrahydrofuran-3-yl)amino)pyridin-4-yl)-1H-indazol-3-amine]
4 | 0.083 µM | 0.0098 µM | COC(=O)Nc1cc(-c2cc(-c3ccc(O)cc3)c3[nH]nc(N)c3c2)ccn1 [Example 323, Methyl (4-(3-Amino-7-(4-hydroxyphenyl)-1H-indazol-5-yl)pyridin-2-yl)carbamate]
5 | 4.73 µM | 8.09 µM | Nc1n[nH]c2c(-c3ccc(O)cc3)cc(-c3ccnc(NC4COC4)c3)cc12 [Example 324, 4-(3-Amino-5-(2-(oxetan-3-ylamino)pyridin-4-yl)-1H-indazol-7-yl)phenol]
6 | 0.079 µM | 0.006 µM | COC(=O)Nc1cc(-c2cc(-c3ccc(N)cc3)c3[nH]nc(N)c3c2)ccn1 [Example 325, Methyl (4-(3-amino-7-(4-aminophenyl)-1H-indazol-5-yl)pyridin-2-yl)carbamate]
7 | 0.087 µM | 0.014 µM | COC(=O)Nc1cc(-c2cc(-c3ccc(NC(C)=O)cc3)c3[nH]nc(N)c3c2)ccn1 [Example 326, Methyl (4-(7-(4-acetamidophenyl)-3-amino-1H-indazol-5-yl)pyridin-2-yl)carbamate]
8 | 3.79 µM | 0.614 µM | COC(=O)Nc1cc(-c2cc(-c3ccc(C(N)=O)cc3)c3[nH]nc(N)c3c2)ccn1 [Example 327, Methyl (4-(3-amino-7-(4-carbamoylphenyl)-1H-indazol-5-yl)pyridin-2-yl)carbamate]
9 | 0.407 µM | 0.024 µM | COC(=O)Nc1cc(-c2cc(-c3ccc(CN4CCOCC4)cc3)c3[nH]nc(N)c3c2)ccn1 [Example 328, Methyl (4-(3-amino-7-(4-(morpholinomethyl)phenyl)-1H-indazol-5-yl)pyridin-2-yl)carbamate]
10 | 0.108 µM | 0.014 µM | Nc1cc(-c2cc(-c3ccc(CCN4CCOCC4)cc3)c3[nH]nc(N)c3c2)ccn1 [Example 329, 5-(2-Aminopyridin-4-yl)-7-(4-(2-morpholinoethyl)phenyl)-1H-indazol-3-amine]
11 | > 10 µM | > 10 µM | COC(=O)Nc1cc(-c2cc(-c3ccc(CCN4CCOCC4)cc3)c3[nH]nc(N)c3c2)ccn1 [Example 330, Methyl (4-(3-amino-7-(4-(2-morpholinoethyl)phenyl)-1H-indazol-5-yl)pyridin-2-yl)carbamate]
12 | 0.429 µM | 0.038 µM | COC(=O)Nc1cc(-c2cc(-c3cccc(CN4CCOCC4)c3)c3[nH]nc(N)c3c2)ccn1 [Example 334, Methyl (4-(3-amino-7-(3-(morpholinomethyl)phenyl)-1H-indazol-5-yl)pyridin-2-yl)carbamate]
13 | 4.2 µM | 0.34 µM | Nc1n[nH]c2ccc(-c3ccnc(NC(=O)CC4CCCCC4)c3)cc12 [Example 335, N-(4-(3-Amino-1H-indazol-5-yl)pyridin-2-yl)-2-cyclohexylacetamide]
14 | > 10 µM | > 10 µM | CC(C)(C)C#Cc1cc(-c2cc(N)ncc2C#N)cc2c(N)n[nH]c12 [Example 336, 6-Amino-4-(3-amino-7-(3,3-dimethylbut-1-yn-1-yl)-1H-indazol-5-yl)nicotinonitrile]
